In patent US20260125647A1, “AGE-MODULATING COMPOUNDS AND METHODS FOR MAKING AGE-MODULATED CELLS” (MEMORIAL SLOAN-KETTERING CANCER CENTER, priority 2023, published 2026):

Tests used:
[1] = tested on: fetal human dermal fibroblasts (HDF-f); experiment: RNA-seq RNAge validation of age inducers in fetal fibroblasts; assay type: cell-based; details: 24 h, relative to DMSO; for RNAge score (relative transcriptional age): Alvocidib 10 μM, 5-Iodotubercin 10 μM, Mitoxantrone 1.1 μM
Description: Fibroblast maintenance and culture. Fibroblasts were maintained in DMEM-F12 containing GlutaMAX,15% heat inactivated FBS and 1× Pen/Strep and passaged using Trypsin. For validation of […] aging score by RNA-seq old (GM04204; Coriell) or young (HDF-f; […] Compounds for experimental validation of […]-based score. All validation experiments were performed after 24 h of compound treatment. For rejuvenation experiments in fibroblasts Mocetinostat (10 μM; Selleck […]), Resveratrol (0.37 μM; Selleck […]) and Radicicol (1.1 μM; Tocris 1589), DMSO (1:1000) and EtOH (1:1000; vehicle control for Radicicol) were applied to old primary fibroblasts (Coriell GM4204). Age induction experiments in young fibroblasts (HDF-f; ScienCell #2300) were performed with 5-Iodotubercin (10 μM; Selleck […]), Alvocidib (10 μM; Selleck […]) and Mitoxantrone (1.1 μM; Selleck […]) with DMSO (1:1000) used as a control. Compounds used for age induction experiments in PSC-derived neurons were: […] Selleck […]) with DMSO (1:1000) used as a control. RNA Extraction. Cell were harvested, lysed, and stored in Trizol (Life Technologies) until further processing. For primary frontal cortex or substantia nigra a total of 10 mg of brain tissue from was lysed in Trizol aided by a tissue dounce. For experimental validation […] compounds RNA was extracted by the core using […] Micro Kit (QIAGEN 1071023). In all other cases RNA was extracted using the Zymo Direct-zol RNA Microprep Kit according to the manufacturer's instructions. RNA-seq analysis. Reads were aligned to the hg19 Human transcripts using STAR (version 2.5.21b) using default parameters and resulting bam files were sorted and indexed using samtools. Gene counts were obtained using featureCounts (version 1.4.3) from sorted bam files using uniquely mapped reads. Genes with no expression counts in any sample were discarded. Differential gene expression analysis was performed using DESeq2 R package that normalize gene count data to transcription per million (TPM), and then detect differentially expressed genes (DEG) between Young and Old groups with ([…] score calculation. The aging score is applied on a gene expression test data where two conditions are compared for expression changes in the aging signature, group1 has n samples and group2 has m samples. For each gene in a tissue specific marker set Ĝk, we can calculate t-statistic between two groups based on Welch's two-sample t test as follow: where the normalizing factor Nk is the number of overlapping genes between the test dataset and Ĝk. The aging score, Aging scorek, represents the overall magnitude of expression difference between two sample groups based on the expression trends. This score is calculated using the tissue-specific aging marker set Mk. It indicates the aging difference between the two groups as well as distinguishes which group is older. To mitigate the influence of a small number of markers with large changes gene expression between group1 and group2 of the test data (i.e. large t-score values), we introduced the “Percentage score” as a measure of agreement between the expression trends of the aging markers and the given dataset. The calculation of the Percentage score involves the product of each gene between Tk and Mk: Ai=ti×Li, where i∈Ĝk. A positive Ai indicates a consistent expression change of gene i in both the aging signature and in the comparison between group1 and group2 in the test dataset. Conversely, a negative Ai indicates an opposite expression trend. Therefore, the “Percentage score” is defined as: […]

HDF fibroblasts = experiment: Hallmarks of age by high content microscopy in fibroblasts; assay type: cell-based, human; details: 24 h
Description: Compounds for experimental validation of L1000-based score. All validation experiments were performed after 24 h of compound treatment. For rejuvenation experiments in fibroblasts Mocetinostat (10 μM; Selleck S1396), Resveratrol (0.37 μM; Selleck S1396) and Radicicol (1.1 μM; Tocris 1589), DMSO (1:1000) and EtOH (1:1000; vehicle control for Radicicol) were applied to old primary fibroblasts (Coriell GM4204). Age induction experiments in young fibroblasts (HDF-f; ScienCell #2300) were performed with 5-Iodotubercin (10 μM; Selleck S8314), Alvocidib (10 μM; Selleck S1230) and Mitoxantrone (1.1 μM; Selleck S2485) with DMSO (1:1000) used as a control. Compounds used for age induction experiments in PSC-derived neurons were: Fludarabine (10 μM; Selleck S1491) Vinorelbine (10 μM; sc-205885) and AGK-2 (0.04 μM; Selleck S7577) with DMSO (1:1000) used as a control.
Assaying Hallmarks of Age by high content microscopy. HDF fibroblasts were plated at a density of 4500/cm^2 and cultured for 48 h before drug treatment. Neurons were plated at a density of 100,000/cm^2 and cultured for 12 days before the application of candidate age inducers. After 24 h of treatment culture wells were washed 2× in PBS then fixed with 4% paraformaldehyde. For immunocytochemistry cells were permeabilized in PBS+0.3% Triton and blocked in 5% normal goat serum. All antibody primary incubations were performed overnight at 4 degrees and secondary antibodies at RT for 1h. Primary antibodies used in this study were: BAG3 (abcam; ab47124), CAV1 (Thermo; MA3-600), H3K9me3 (abcam; ab176916), LAP2 (BD Bioscience; 611000), p21 (CST; 2947), yH2AX (EMD Millipore; 05-636). Immunocytochemistry images were acquired using an Operetta (PerkinElmer, Waltham, MA) microscope and quantified using the harmony high content analysis software. For both fibroblasts and neurons 4 independent batches of cells were assayed in triplicate (n=12). Fluorescence intensity was normalized to DMSO, and ordinary one-way ANOVA used to compare test conditions to the DMSO control (Prism 9.5.1). […]

PSC-derived neurons = experiment: RNA-seq RNAge validation of age inducers in PSC-derived neurons; assay type: cell-based, human; details: 24 h, relative to DMSO, Vinorelbine 10 μM, AGK-2 0.04 μM
Description: Generation of human cortical neurons. Cortical neurons were generated by directed differentiation of human embryonic stem cells (H9; WA-09) maintained in E8 on vitronectin coated plates. […] After 24 h the E8 medium was replaced with E6 containing SB431542 (10 μM), LDN193189 (100 nM) and XAV939 ([…]). After three days the XAV939 was removed from the differentiation media and cells were cultured for an additional seven days in E6 containing SB431542 (10 μM), LDN193189 (100 nM). The neuroepithelium was maintained for an additional 10 days in neurobasal supplemented with N2 and B27. Media was changed daily throughout the differentiation. At DIV 20 the cultures were dissociated using Accutase to generate a single cell suspension and plated out for subsequent experiments in Neurobasal medium supplemented with B27, L-glutamine, BDNF, CAMP, ascorbic acid and GDNF (neural maintenance media). DAPT was also added to the culture medium from DIV20 to DIV30. Compounds for experimental validation of […]-based score. […] Reads were aligned to the hg19 Human transcripts using STAR (version 2.5.21b) using default parameters and resulting bam files were sorted and indexed using samtools. Gene counts were obtained using featureCounts (version 1.4.3) from sorted bam files using uniquely mapped reads. […] This score is calculated using the tissue-specific aging marker set Mk. […]

[2] = tested on: old primary fibroblasts (Coriell GM04204); experiment: RNA-seq RNAge validation of rejuvenating compounds in old primary fibroblasts; assay type: cell-based, human; details: 0.37 μM, 24 h
Description: Fibroblast maintenance and culture. Fibroblasts were maintained in DMEM-F12 containing GlutaMAX,15% heat inactivated FBS and 1× Pen/Strep and passaged using Trypsin. For validation of […] aging score by RNA-seq old (GM04204; Coriell) or young (HDF-f; […] Compounds for experimental validation of […]-based score. All validation experiments were performed after 24 h of compound treatment. For rejuvenation experiments in fibroblasts Mocetinostat (10 μM; Selleck […]), Resveratrol (0.37 μM; Selleck […]) and Radicicol (1.1 μM; Tocris 1589), DMSO (1:1000) and EtOH (1:1000; vehicle control for Radicicol) were applied to old primary fibroblasts (Coriell GM4204). Age induction experiments in young fibroblasts (HDF-f; ScienCell #2300) were performed with 5-Iodotubercin (10 μM; Selleck […]), Alvocidib (10 μM; Selleck […]) and Mitoxantrone (1.1 μM; Selleck […]) with DMSO (1:1000) used as a control. Compounds used for age induction experiments in PSC-derived neurons were: […] Selleck […]) with DMSO (1:1000) used as a control. RNA Extraction. […] Reads were aligned to the hg19 Human transcripts using STAR (version 2.5.21b) using default parameters and resulting bam files were sorted and indexed using samtools. Gene counts were obtained using featureCounts (version 1.4.3) from sorted bam files using uniquely mapped reads. […] This score is calculated using the tissue-specific aging marker set Mk. […]

In the case of `Nc1ncnc2c1c(I)cn2[C@@H]1O[C@H](CO)[C@@H](O)[C@H]1O` [5-iodotubercin], the “pattern of induction of the RNAge subscores” value (from here on “pattern”) [1] was “very similar pattern of induction”, the “RNAge score (relative transcriptional age)” value [1] was “increased” and the nuclear area (HDF fibroblasts) was “increase”. For the same molecule, the nuclear roundness (HDF fibroblasts) was “loss”, the BAG3 fluorescence intensity (HDF fibroblasts; relative to DMSO) was “decreased” and the LAP2 fluorescence intensity (HDF fibroblasts; relative to DMSO) was “loss”.

In the case of `N#C/C(=C\c1ccc(-c2cc(Cl)ccc2Cl)o1)C(=O)Nc1cccc2ncccc12` [AGK-2], the “RNAge score / aging scores across the aging signatures” value (PSC-derived neurons) was “no obvious transcriptional effect or impact”.

With `CN1CC[C@H](c2c(O)cc(O)c3c(=O)cc(-c4ccccc4Cl)oc23)[C@H](O)C1` [Alvocidib] the “pattern” value [1] was “very similar pattern of induction”, the “RNAge score (relative transcriptional age)” value [1] was “increased” and the nuclear area (HDF fibroblasts) was “increase”. The nuclear roundness (HDF fibroblasts) was “loss”, the BAG3 fluorescence intensity (HDF fibroblasts; relative to DMSO) was “decreased” and the LAP2 fluorescence intensity (HDF fibroblasts; relative to DMSO) was “loss”.

`O=C1c2c(O)ccc(O)c2C(=O)c2c(NCCNCCO)ccc(NCCNCCO)c21` [Mitoxantrone] was tested, and the “pattern” value [1] was “only showed induced aging in the ‘Pan’ and ‘pF’ aging categories”, the “RNAge score (relative transcriptional age)” value [1] was “increased” and the nuclear roundness (HDF fibroblasts) was “loss”. The BAG3 fluorescence intensity (HDF fibroblasts; relative to DMSO) was “decreased”, the H3K9me3 immunoreactivity (HDF fibroblasts; relative to DMSO) was “decreased” and the LAP2 fluorescence intensity (HDF fibroblasts; relative to DMSO) was “loss”. The p21 immunoreactivity (HDF fibroblasts; relative to DMSO) was “increased” and the γH2AX immunoreactivity (HDF fibroblasts; relative to DMSO) was “increased”.

`Oc1ccc(C=Cc2cc(O)cc(O)c2)cc1` [Resveratrol] was tested, and the “fibroblast aging score bubble size (percent of genes that change in the expected direction)” value [2] was “very small bubble size”.

With `CCC1=C[C@@H]2CN(C1)Cc1c([nH]c3ccccc13)[C@@](C(=O)OC)(c1cc3c(cc1OC)N(C)[C@H]1[C@@](O)(C(=O)OC)[C@H](OC(C)=O)[C@]4(CC)C=CCN5CC[C@]31[C@@H]54)C2` [Vinorelbine] the “RNAge score / aging scores across the aging signatures” value (PSC-derived neurons) was “only a slight, albeit consistent, induction”.
